The target in assay [1] is T1, Mtb IMPDH (Mycobacterium tuberculosis, UniProt P9WKI7).
T1 construct: made in house
Kind of assay: IMPDH biochemical assay (inhibition of Mtb GuaB2). To be noted: Mtb IMPDH (GuaB2) enzyme.

The subject of assay [2] is wild-type M. tuberculosis strain H37Rv. Kind of assay: microbe, parasite or virus in culture. In kind it is cell-based. To be noted: Mycobacterium tuberculosis, H37RV.
Setting [3] is: wild-type M. tuberculosis H37Rv, read-out: MIC90 against WT.

Values after ≈ are worked out from the molar mass of the structure shown. Like-named read-outs stand apart in the source and are kept apart here.

T1 sequence (P9WKI7 whole entry, looked up): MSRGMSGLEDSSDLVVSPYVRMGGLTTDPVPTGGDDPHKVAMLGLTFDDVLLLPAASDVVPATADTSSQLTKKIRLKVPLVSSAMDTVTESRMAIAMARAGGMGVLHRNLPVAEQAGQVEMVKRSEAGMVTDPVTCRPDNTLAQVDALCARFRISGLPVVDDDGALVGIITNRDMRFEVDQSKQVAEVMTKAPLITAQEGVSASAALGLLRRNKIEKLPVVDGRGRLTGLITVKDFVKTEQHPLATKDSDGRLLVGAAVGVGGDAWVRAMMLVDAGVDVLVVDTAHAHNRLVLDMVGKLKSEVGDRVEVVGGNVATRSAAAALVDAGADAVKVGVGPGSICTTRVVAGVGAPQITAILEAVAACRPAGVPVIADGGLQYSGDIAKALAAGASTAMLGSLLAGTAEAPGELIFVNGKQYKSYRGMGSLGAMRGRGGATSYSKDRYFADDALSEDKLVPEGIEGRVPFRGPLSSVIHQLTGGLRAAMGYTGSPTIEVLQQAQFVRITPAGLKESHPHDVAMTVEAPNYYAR

Usually IC50 stands for the midpoint of a concentration-inhibition curve. A high value points to weaker potency. Regarding `O=C(Cc1cccc(O)c1)N1CCN(S(=O)(=O)c2cccc3cnccc23)CC1` [Compound 25, 2-(3-hydroxyphenyl)-1-[4-(isoquinoline-5-sulfonyl)piperazin-1-yl]ethan-1-one], the IC50 in assay [1] came out at 4000 ± 200 nM. Also, in assay [2] (setting [3]), the MIC90 worked out at 125 µM (≈ 51.4 µg/mL).

In turn, `O=C(NCCNS(=O)(=O)c1cccc2cnccc12)C1CC1` [Compound 9, N-{2-[(isoquinoline-5-sulfonyl)amino]ethyl}cyclopropanecarboxamide] yielded an IC50 in assay [1] of 6900 ± 200 nM. The MIC90 in assay [2] (setting [3]) came out at 100 µM (≈ 31.9 µg/mL).

In assay [1], `O=C(c1cc([N+](=O)[O-])cc([N+](=O)[O-])c1)N1CCN(S(=O)(=O)c2cccc3cnccc23)CC1` [Compound 19, [4-(isoquinoline-5-sulfonyl)piperazin-1-yl](3,5-dinitrophenyl)methanone] registered an IC50 of 1400 ± 10 nM. Besides, the MIC90 in assay [2] (setting [3]) came to 12.5 µM (≈ 5.89 µg/mL).

On to `N#Cc1cccc(C(=O)N2CCN(S(=O)(=O)c3cccc4cnccc34)CC2)c1` [Compound 16, 3-[4-(isoquinoline-5-sulfonyl)piperazine-1-carbonyl]benzonitrile], for which the IC50 in assay [1] amounted to 8600 ± 500 nM. Further, the MIC90 in assay [2] (setting [3]) worked out at 25 µM (≈ 10.2 µg/mL).

As for `O=C(Nc1cccc(C(F)(F)F)c1)N1CCN(S(=O)(=O)c2cccc3cnccc23)CC1` [Compound 32, 4-(isoquinolin-5-ylsulfonyl)-N-(3-(trifluoromethyl)phenyl)piperazine-1-carboxamide], in assay [1], 80 ± 5 nM corresponded to half-maximal inhibition (IC50). Besides, the MIC90 in assay [2] (setting [3]) worked out at 62.5 µM (≈ 29 µg/mL).

In the case of `O=C(NCCNS(=O)(=O)c1cccc2cnccc12)C1CCCCC1` [Compound 2, N-{2-[(isoquinoline-5-sulfonyl)amino]ethyl}cyclohexanecarboxamide], the IC50 in assay [1] came to 500 ± 20 nM. Besides, in assay [2] (read-out: MIC90 against WT, wild-type M. tuberculosis H37Rv), the MIC90 worked out at 50 µM (≈ 18.1 µg/mL).

As to `N#Cc1cccc(CC(=O)N2CCN(S(=O)(=O)c3cccc4cnccc34)CC2)c1` [Compound 24, 3-{2-[4-(isoquinoline-5-sulfonyl)piperazin-1-yl]-2-oxoethyl}benzonitrile], the IC50 in assay [1] turned out to be 5960 ± 200 nM. For the same compound, the MIC90 in assay [2] (setting [3]) is 125 µM (≈ 52.6 µg/mL).

The compound `Cc1cccc(Cl)c1NC(=O)N1CCN(S(=O)(=O)c2cccc3cnccc23)CC1` [Compound 40, N-(2-chloro-6-methylphenyl)-4-(isoquinolin-5-ylsulfonyl)piperazine-1-carboxamide] showed an IC50 in assay [1] of 3400 ± 100 nM. In assay [2] (setting [3]), the MIC90 turned out to be 250 µM (≈ 111 µg/mL).

The compound `COc1cccc(CC(=O)N2CCN(S(=O)(=O)c3cccc4cnccc34)CC2)c1` [Compound 26, 1-[4-(isoquinoline-5-sulfonyl)piperazin-1-yl]-2-(3-methoxyphenyl)ethan-1-one] registered an IC50 in assay [1] of 2600 ± 200 nM. For the same compound, the MIC90 in assay [2] (setting [3]) amounted to 250 µM (≈ 106 µg/mL).

`O=C(NC1CCN(S(=O)(=O)c2cccc3cnccc23)CC1)C1CCCCC1` [Compound 4, N-[1-(isoquinoline-5-sulfonyl)piperidin-4-yl]cyclohexanecarboxamide] had a concentration for half-maximal inhibition (IC50) in assay [1] of 9700 ± 300 nM. Also, in assay [2] (setting [3]), the MIC90 is > 100 µM.

In assay [1], `O=C(NCc1ccccc1)N1CCN(S(=O)(=O)c2cccc3cnccc23)CC1` [Compound 46, N-benzyl-4-(isoquinolin-5-ylsulfonyl)piperazine-1-carboxamide] returned an IC50 of 350 ± 30 nM. Besides, the MIC90 in assay [2] (setting [3]) was 3.1 µM (≈ 1.27 µg/mL).

In assay [1], `CC1CN(S(=O)(=O)c2cccc3cnccc23)CCN1C(=O)Nc1ccc2c(c1)OCO2` (stereo not shown) [Compound 45, N-(benzo[d][1,3]dioxol-5-yl)-4-(isoquinolin-5-ylsulfonyl)-2-methylpiperazine-1-carboxamide] showed an IC50 of 120 ± 20 nM. Also, in assay [2] (setting [3]), the MIC90 is 12.5 µM (≈ 5.68 µg/mL).

As to `O=C(Cc1ccc(F)cc1)N1CCN(S(=O)(=O)c2cccc3cnccc23)CC1` [Compound 29, 2-(4-fluorophenyl)-1-(4-(isoquinolin-5-ylsulfonyl)piperazin-1-yl)ethan-1-one], in assay [1], the IC50 amounted to 680 ± 50 nM. Moreover, the MIC90 in assay [2] (setting [3]) turned out to be 25 µM (≈ 10.3 µg/mL).

In turn, `O=C(c1cccc([N+](=O)[O-])c1)N1CCN(S(=O)(=O)c2cccc3cnccc23)CC1` [Compound 18, [4-(isoquinoline-5-sulfonyl)piperazin-1-yl](3-nitrophenyl)methanone] returned an IC50 in assay [1] of 1100 ± 100 nM. For the same compound, the MIC90 in assay [2] (setting [3]) came to 12.5 µM (≈ 5.33 µg/mL).

(Values after publication PMC6990405, “Synthesis and Structure–Activity relationship of 1-(5-isoquinolinesulfonyl)piperazine analogues as inhibitors of Mycobacterium tuberculosis IMPDH” (European Journal of Medicinal Chemistry, 2019).)
